We go through five compounds from PMC5908784, “Extracellular loops 2 and 3 of the calcitonin receptor selectively modify agonist binding and efficacy” (Biochemical Pharmacology, 2018).

Holding throughout (experiment): ERK1/2 phosphorylation
Common to all, as to type: cell-based

The target in one assay is T1, hCTR F356A (Homo sapiens, UniProt P30988, F356A).
T1 construct: c-Myc (N); expressed in transfected cells
T1 sequence (P30988 25-474 F356A): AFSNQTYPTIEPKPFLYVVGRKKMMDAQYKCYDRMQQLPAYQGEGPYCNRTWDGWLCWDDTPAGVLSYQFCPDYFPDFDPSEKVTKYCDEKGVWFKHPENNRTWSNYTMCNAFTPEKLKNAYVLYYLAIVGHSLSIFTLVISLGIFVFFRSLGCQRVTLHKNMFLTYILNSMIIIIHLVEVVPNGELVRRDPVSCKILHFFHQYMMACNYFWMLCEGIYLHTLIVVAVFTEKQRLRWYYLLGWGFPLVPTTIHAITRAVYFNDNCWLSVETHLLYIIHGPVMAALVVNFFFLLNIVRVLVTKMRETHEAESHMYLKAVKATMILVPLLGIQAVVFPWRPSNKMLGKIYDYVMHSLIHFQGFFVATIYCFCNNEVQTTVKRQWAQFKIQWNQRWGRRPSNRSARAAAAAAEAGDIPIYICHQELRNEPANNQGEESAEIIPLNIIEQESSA
As to conditions: CV1-FlpIn cells, mean ± S.E.M.; for Emax: pERK maximal response; for EC50: pERK, three-parameter logistic fit. In short, it runs like this:
(§1)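 Overnight-plated cells at 2.5 × 10^4/well are stimulated, and ERK1/2 phosphorylation is referenced to the 10% FBS response at 6 min before logistic curve fitting.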

The next assay has as its target T2, hCTR H296A (Homo sapiens, UniProt P30988, H296A).
T2 construct: c-Myc (N); expressed in transfected cells
T2 sequence (P30988 25-474 H296A): T1 sequence (P30988 25-474 F356A) with H272A, A332F
As to conditions: CV1-FlpIn cells, mean ± S.E.M.; for Emax: pERK maximal response; for EC50: pERK, three-parameter logistic fit. An outline of the steps: as §1

The target of the next assay is T3, hCTR I279A (Homo sapiens, UniProt P30988, I279A).
T3 construct: expressed in transfected cells
T3 sequence (P30988 25-474 I279A): T1 sequence (P30988 25-474 F356A) with I255A, A332F
As to conditions: CV1-FlpIn cells, mean ± S.E.M.; for Emax: pERK maximal response. An outline of the steps:
as §1

In another assay the target is T4, hCTR T280A (Homo sapiens, UniProt P30988, T280A).
T4 construct: expressed in transfected cells
T4 sequence (P30988 25-474 T280A): T1 sequence (P30988 25-474 F356A) with T256A, A332F
As to conditions: CV1-FlpIn cells, mean ± S.E.M.; for Emax: pERK maximal response; for EC50: pERK, three-parameter logistic fit. An outline of the steps: as §1

Another assay has as its target T5, hCTR Y299A (Homo sapiens, UniProt P30988, Y299A).
T5 construct: c-Myc (N); expressed in transfected cells
T5 sequence (P30988 25-474 Y299A): T1 sequence (P30988 25-474 F356A) with Y275A, A332F
As to conditions: CV1-FlpIn cells, mean ± S.E.M.; for Emax: pERK maximal response. In short, it runs like this: as §1

[1] abbreviates: pERK, three-parameter logistic fit.

Numbering of substitutions follows the chain as printed. Where a SMILES comes first, the peptide text is derived from it. Bridges are numbered along the chain shown (N, C = ends).

As to `CC[C@H](C)[C@H](NC(=O)[C@H](C)NC(=O)[C@@H](NC(=O)[C@H](CCC(N)=O)NC(=O)[C@@H]1CCCN1C(=O)[C@H](Cc1ccccc1)NC(=O)[C@@H](NC(=O)[C@H](Cc1c[nH]cn1)NC(=O)[C@H](Cc1ccccc1)NC(=O)[C@H](CCCCN)NC(=O)[C@H](CC(N)=O)NC(=O)[C@H](Cc1ccccc1)NC(=O)[C@H](CC(=O)O)NC(=O)[C@H](CCC(N)=O)NC(=O)[C@@H](NC(=O)[C@H](Cc1ccc(O)cc1)NC(=O)[C@@H](NC(=O)CNC(=O)[C@H](CC(C)C)NC(=O)[C@H](CCSC)NC(=O)[C@@H]1CSSC[C@H](N)C(=O)NCC(=O)N[C@@H](CC(N)=O)C(=O)N[C@@H](CC(C)C)C(=O)N[C@@H](CO)C(=O)N[C@@H]([C@@H](C)O)C(=O)N1)[C@@H](C)O)[C@@H](C)O)[C@@H](C)O)[C@@H](C)O)C(=O)NCC(=O)N[C@H](C(=O)NCC(=O)N[C@@H](C)C(=O)N1CCC[C@H]1C(N)=O)C(C)C` [hCT], the Emax (commonly the maximal effect, on the per cent scale that the assay sets) on hCTR F356A was determined as 43 ± 3%; on hCTR H296A it was 148 ± 8%; at hCTR I279A it was 143 ± 10%; at hCTR T280A, 168 ± 12%; at hCTR Y299A it was 56 ± 6%.
In the case of `CC(C)C[C@H](NC(=O)CNC(=O)[C@H](C)NC(=O)[C@H](CC(C)C)NC(=O)[C@H](CCCNC(=N)N)NC(=O)[C@H](Cc1cnc[nH]1)NC(=O)[C@@H](NC(=O)[C@@H](NC(=O)[C@@H]1CSSC[C@H](NC(=O)[C@H](C)N)C(=O)N[C@@H](CC(=O)O)C(=O)N[C@@H]([C@@H](C)O)C(=O)N[C@@H](C)C(=O)N[C@@H]([C@@H](C)O)C(=O)N1)C(C)C)[C@@H](C)O)C(=O)N[C@@H](CC(C)C)C(=O)N[C@@H](CO)C(=O)N[C@@H](CCCNC(=N)N)C(=O)N[C@@H](CO)C(=O)NCC(=O)NCC(=O)N[C@H](C(=O)N[C@H](C(=O)N[C@@H](CCCCN)C(=O)N[C@@H](CC(N)=O)C(=O)N[C@@H](CC(N)=O)C(=O)N[C@@H](Cc1ccccc1)C(=O)N[C@H](C(=O)N1CCC[C@H]1C(=O)N[C@H](C(=O)N[C@@H](CC(N)=O)C(=O)N[C@H](C(=O)NCC(=O)N[C@@H](CO)C(=O)N[C@@H](CCCCN)C(=O)N[C@@H](C)C(=O)N[C@@H](Cc1ccccc1)C(N)=O)C(C)C)[C@@H](C)O)C(C)C)C(C)C)C(C)C` [hαCGRP], the Emax stood at 68 ± 11% on hCTR F356A, 77 ± 11% on hCTR H296A, 97 ± 11% at hCTR I279A and 106 ± 12% at hCTR T280A. In addition, the values for the EC50 at hCTR F356A, on hCTR H296A and on hCTR T280A were 182 nM, 91.2 nM and 53.7 nM, respectively.
For the compound `CSCC[C@H](NC(=O)CNC(=O)[C@H](CO)NC(=O)[C@H](Cc1ccccc1)NC(=O)[C@H](CCCNC(=N)N)NC(=O)[C@H](Cc1c[nH]cn1)NC(=O)[C@H](Cc1ccccc1)NC(=O)[C@H](CC(N)=O)NC(=O)[C@H](CC(N)=O)NC(=O)[C@H](CC(C)C)NC(=O)[C@H](CC(N)=O)NC(=O)[C@H](CCCNC(=N)N)NC(=O)[C@H](Cc1c[nH]c2ccccc12)NC(=O)[C@H](Cc1ccc(O)cc1)NC(=O)[C@H](C)NC(=O)[C@H](CO)NC(=O)[C@H](CC(C)C)NC(=O)[C@@H](NC(=O)[C@@H]1CSSC[C@H](N)C(=O)N[C@@H](CO)C(=O)N[C@@H](CC(N)=O)C(=O)N[C@@H](CC(C)C)C(=O)N[C@@H](CO)C(=O)N[C@@H]([C@@H](C)O)C(=O)N1)C(C)C)C(=O)NCC(=O)N[C@@H](Cc1ccccc1)C(=O)NCC(=O)N1CCC[C@H]1C(=O)N[C@@H](CCC(=O)O)C(=O)N[C@H](C(=O)N1CCC[C@H]1C(N)=O)[C@@H](C)O` [pCT] (H-CSNLSTCVLSAYWRNLNNFHRFSGMGFGPETP-NH2; disulfide 1-7), the maximal effect (Emax) on hCTR F356A was 57 ± 6%; at hCTR H296A, 163 ± 10%; on hCTR I279A, 122 ± 7%; on hCTR T280A, 160 ± 10%; at hCTR Y299A, 51 ± 3%. Moreover, the 50% effective concentration (EC50) (in general, the concentration giving half of the maximal effect) at hCTR F356A is 4.47 nM; on hCTR H296A it was 2.34 nM; on hCTR I279A (setting [1]), 2.19 nM; on hCTR T280A, 2.04 nM; at hCTR Y299A (setting [1]), 0.933 nM.
In the case of `CC(C)C[C@H](NC(=O)[C@H](CC(N)=O)NC(=O)[C@H](CC(N)=O)NC(=O)[C@H](CO)NC(=O)[C@H](CO)NC(=O)[C@H](CCCNC(=N)N)NC(=O)[C@@H](NC(=O)[C@H](CC(C)C)NC(=O)[C@H](Cc1ccccc1)NC(=O)[C@H](CC(N)=O)NC(=O)[C@H](C)NC(=O)[C@H](CC(C)C)NC(=O)[C@H](CCCNC(=N)N)NC(=O)[C@H](CCC(N)=O)NC(=O)[C@@H](NC(=O)[C@H](C)NC(=O)[C@@H]1CSSC[C@H](NC(=O)[C@@H](N)CCCCN)C(=O)N[C@@H](CC(N)=O)C(=O)N[C@@H]([C@@H](C)O)C(=O)N[C@@H](C)C(=O)N[C@@H]([C@@H](C)O)C(=O)N1)[C@@H](C)O)C(C)C)C(=O)NCC(=O)N1CCC[C@H]1C(=O)N[C@H](C(=O)N[C@@H](CC(C)C)C(=O)N1CCC[C@H]1C(=O)N1CCC[C@H]1C(=O)N[C@H](C(=O)N[C@@H](CC(N)=O)C(=O)N[C@H](C(=O)NCC(=O)N[C@@H](CO)C(=O)N[C@@H](CC(N)=O)C(=O)N[C@H](C(=O)N[C@@H](Cc1ccc(O)cc1)C(N)=O)[C@@H](C)O)C(C)C)[C@@H](C)O)C(C)C` [rAmy], the maximum response (Emax) is 41 ± 5% at hCTR F356A; 82 ± 8% at hCTR H296A; 88 ± 9% on hCTR I279A; 110 ± 11% at hCTR T280A; 51 ± 7% on hCTR Y299A.
As for `CC(C)C[C@H](NC(=O)[C@H](CCCCN)NC(=O)CNC(=O)[C@H](CC(C)C)NC(=O)[C@@H](NC(=O)[C@@H]1CSSC[C@H](N)C(=O)N[C@@H](CO)C(=O)N[C@@H](CC(N)=O)C(=O)N[C@@H](CC(C)C)C(=O)N[C@@H](CO)C(=O)N[C@@H]([C@@H](C)O)C(=O)N1)C(C)C)C(=O)N[C@@H](CO)C(=O)N[C@@H](CCC(N)=O)C(=O)N[C@@H](CCC(=O)O)C(=O)N[C@@H](CC(C)C)C(=O)N[C@@H](Cc1c[nH]cn1)C(=O)N[C@@H](CCCCN)C(=O)N[C@@H](CC(C)C)C(=O)N[C@@H](CCC(N)=O)C(=O)N[C@H](C(=O)N[C@@H](Cc1ccc(O)cc1)C(=O)N1CCC[C@H]1C(=O)N[C@@H](CCCNC(=N)N)C(=O)N[C@H](C(=O)N[C@@H](CC(N)=O)C(=O)N[C@H](C(=O)NCC(=O)N[C@@H](CO)C(=O)NCC(=O)N[C@H](C(=O)N1CCC[C@H]1C(N)=O)[C@@H](C)O)[C@@H](C)O)[C@@H](C)O)[C@@H](C)O` [sCT], the Emax at hCTR F356A is 72 ± 5%; at hCTR H296A, 152 ± 9%; at hCTR I279A, 126 ± 5%; on hCTR T280A, 158 ± 12%; on hCTR Y299A, 58 ± 4%.
